Patent publication US20120201802A1, “METHOD FOR PRODUCING REDUCED COENZYME Q10, METHOD FOR STABILIZING SAME, AND COMPOSITION COMPRISING SAME” (Keneka Corporation, priority 2009, published 2012)

Columns and labels:
[1] = Reduction of oxidized coenzyme Q10 in 99% ethanol (Example 1, Comparative Example 1); settings: after reaction, oxidized CoQ10 0.1 g + plant extract 1.0 g (10-fold weight) or compound 0.69 mmol, 78° C., 16 hr, nitrogen atmosphere
Description: (§1) While the present invention is explained in more detail in the following by referring to Examples, the present invention is not limited to those Examples alone. Moreover, the purity of reduced coenzyme Q10, the weight ratio of reduced coenzyme Q10/oxidized coenzyme Q10, and the like in the Examples were measured by the following HPLC analysis. […] To conveniently indicate the weight ratio of reduced coenzyme Q10 and oxidized coenzyme Q10 in the present Example, the ratio of reduced coenzyme Q10 to the total amount of coenzyme Q10 (total amount of oxidized coenzyme Q10 and reduced coenzyme Q10) is shown in percentage as a “weight ratio of reduced coenzyme Q10”. For example, “the weight ratio of reduced coenzyme Q10 is 20%” means that the weight ratio of reduced coenzyme Q10 and oxidized coenzyme Q10 is 20/80. • (HPLC analysis conditions) • column; SYMMETRY C18 (manufactured by Waters) 250 mm (length) 4.6 mm (inner diameter), • mobile phase; C2H5OH:CH3OH=4:3 (v:v), • detection wavelength; 210 nm, • flow rate; 1 ml/min, • retention time of reduced coenzyme Q10; 9.1 min, • retention time of oxidized coenzyme Q10; 13.3 min.
Oxidized coenzyme Q10 crystal (0.1 g) and a component derived from a naturally-occurring substance (plant extract, 1.0 g, 10-fold weight) described in Table 1 were respectively added to 99% ethanol (15 g), and the mixture was stirred at 78° C. for 16 hr under a nitrogen atmosphere.
Oxidized coenzyme Q10 crystal (0.1 g, 0.12 mmol) and the compound described in Table 1 (0.69 mmol) were respectively added to 99% ethanol (15 g), and the mixture was stirred at 78° C. for 16 hr under a nitrogen atmosphere.

[2] = Reduction of oxidized coenzyme Q10 in Span 80/glycerol/Tween 80/MCT mixture (Example 3, Comparative Example 3); settings: after reaction, oxidized CoQ10 0.1 g + plant extract 1.0 g or compound 0.69 mmol, 80° C., 16 hr, nitrogen atmosphere
Description: as §1
Oxidized coenzyme Q10 crystal (0.1 g) and a component derived from a naturally-occurring substance described in Table 3 (plant extract, 1.0 g, 10-fold weight) or a compound (0.69 mmol) were respectively added to a mixture of Span 80 (0.12 g), glycerol (0.09 g), Tween 80 (1.49 g) and MCT (0.43 g), and the mixture was stirred at 80° C. for 16 hr under a nitrogen atmosphere.

[3] = Reduction of oxidized coenzyme Q10 in limonene (Example 2, Comparative Example 2); settings: after reaction, oxidized CoQ10 0.1 g + plant extract 1.0 g or compound 0.69 mmol, 85° C., 16 hr, nitrogen atmosphere
Description: While the present invention is explained in more detail in the following by referring to Examples, the present invention is not limited to those Examples alone. Moreover, the purity of reduced coenzyme Q10, the weight ratio of reduced coenzyme Q10/oxidized coenzyme Q10, and the like in the Examples were measured by the following HPLC analysis. […] To conveniently indicate the weight ratio of reduced coenzyme Q10 and oxidized coenzyme Q10 in the present Example, the ratio of reduced coenzyme Q10 to the total amount of coenzyme Q10 (total amount of oxidized coenzyme Q10 and reduced coenzyme Q10) is shown in percentage as a “weight ratio of reduced coenzyme Q10”. For example, “the weight ratio of reduced coenzyme Q10 is 20%” means that the weight ratio of reduced coenzyme Q10 and oxidized coenzyme Q10 is 20/80. • (HPLC analysis conditions) • column; SYMMETRY C18 (manufactured by Waters) 250 mm (length) 4.6 mm (inner diameter), • mobile phase; C2H5OH:CH3OH=4:3 (v:v), • detection wavelength; 210 nm, • flow rate; 1 ml/min, • retention time of reduced coenzyme Q10; 9.1 min, • retention time of oxidized coenzyme Q10; 13.3 min. […]

## retinol acetate
[1]
  weight ratio of reduced coenzyme Q10: 4%

## Cc1c(C)c2c(c(C)c1O)CC[C@@](C)(CCC[C@H](C)CCC[C@H](C)CCCC(C)C)O2 [α-tocopherol]
[2]
  weight ratio of reduced coenzyme Q10: 0%

## O=C(O)CCCC[C@@H](S)CCS [R-dihydrolipoic acid]
[3]
  weight ratio of reduced coenzyme Q10: 1%

## CC1=C(/C=C/C(C)=C/C=C/C(C)=C/C=O)C(C)(C)CCC1 [retinal]
[2]
  weight ratio of reduced coenzyme Q10: 3%
[1]
  weight ratio of reduced coenzyme Q10: 4%

## O=C1O[C@H]([C@@H](O)CO)C([O-])=C1O.[Na+] [L-sodium ascorbate]
[3]
  weight ratio of reduced coenzyme Q10: 1%

## NC(=O)C1=CN([C@@H]2O[C@H](COP(=O)(O)OP(=O)(O)OC[C@H]3O[C@@H](n4cnc5c(N)ncnc54)[C@H](O)[C@@H]3O)[C@@H](O)[C@H]2O)C=CC1 [NADH]
[2]
  weight ratio of reduced coenzyme Q10: 0%
[1]
  weight ratio of reduced coenzyme Q10: 2%

## C[N+](C)(C)CC(O)CC(=O)[O-] (stereo not shown) [carnitine]
[2]
  weight ratio of reduced coenzyme Q10: 0%
[1]
  weight ratio of reduced coenzyme Q10: 0%
